Experiments:
TIP60-KAT5 [1] = target: T1, TIP60-KAT5 (Homo sapiens, UniProt Q92993); assay: Revised Acetyltransferase Biochemical Assay, KAT5; details: 10 nM KAT5, 1 μM AcCoA, 100 nM histone H4, 90 min
T1 construct: encoding amino acid residues 2 to 461 (Uniprot Q92993-2) of human KAT5 isoform; made in house; host or cells: E. coli BL21 DE3

MOZ-KAT6A [2] = target: T2, MOZ-KAT6A (Homo sapiens, UniProt Q92794, A567V); assay: Acetyltransferase biochemical assay (AlphaScreen), KAT6A; details: Table 2 (MOZ-KAT6A); 10 μM Acetyl coenzyme A, histone H3.1, 5 nM enzyme
T2 construct: encoding amino acid residues 507 to 778 (Uniprot Q92794-1) of human KAT6A; made in house; host or cells: E. coli BL21 DE3
T2 sequence (Q92794 507-778 A567V limits assumed): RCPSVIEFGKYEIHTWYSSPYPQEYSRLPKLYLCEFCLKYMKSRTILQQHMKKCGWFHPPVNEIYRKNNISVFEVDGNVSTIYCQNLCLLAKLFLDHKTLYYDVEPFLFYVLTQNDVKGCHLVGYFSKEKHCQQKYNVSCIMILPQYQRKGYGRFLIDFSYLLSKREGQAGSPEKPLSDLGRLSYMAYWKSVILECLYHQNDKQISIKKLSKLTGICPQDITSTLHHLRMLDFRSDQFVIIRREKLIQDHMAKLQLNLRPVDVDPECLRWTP

MOZ-KAT6A [3] = target: T2, MOZ-KAT6A; assay: Revised Acetyltransferase Biochemical Assay, KAT6A; details: Table 8 (MOZ-KAT6A), 1 μM Acetyl coenzyme A
TIP60-KAT5 [4] = target: T1, TIP60-KAT5; assay: Acetyltransferase biochemical assay (AlphaScreen), KAT5; details: Table 1 (TIP60-KAT5); 0.4 μM Acetyl coenzyme A, histone H4, 10 nM enzyme
HBO-KAT7 [5] = target: T3, HBO-KAT7 (Homo sapiens, UniProt O95251); assay: Acetyltransferase biochemical assay (AlphaScreen), KAT7; details: Table 3 (HBO-KAT7); 0.4 μM Acetyl coenzyme A, histone H3.1, 40 nM enzyme
T3 construct: encoding amino acid residues 325 to 611 (Uniprot 095251-1) of human KAT7; made in house; host or cells: E. coli BL21 DE3 RIL
T3 sequence (O95251 with tags, fused parts or gaps): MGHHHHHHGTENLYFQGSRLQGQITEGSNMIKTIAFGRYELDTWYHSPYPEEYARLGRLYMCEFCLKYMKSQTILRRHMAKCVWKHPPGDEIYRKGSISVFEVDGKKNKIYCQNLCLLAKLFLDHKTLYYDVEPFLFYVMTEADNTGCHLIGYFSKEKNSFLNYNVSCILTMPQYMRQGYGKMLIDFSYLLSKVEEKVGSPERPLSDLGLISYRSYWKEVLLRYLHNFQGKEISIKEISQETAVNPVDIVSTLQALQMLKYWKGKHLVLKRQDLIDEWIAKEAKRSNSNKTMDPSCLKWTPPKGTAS

MOF-KAT8 [6] = target: T4, MOF-KAT8 (Homo sapiens, UniProt Q9H7Z6); assay: Acetyltransferase biochemical assay (AlphaScreen), KAT8; details: Table 4 (MOF-KAT8); 0.4 μM Acetyl coenzyme A, histone H4, 20 nM enzyme
T4 sequence (Q9H7Z6 177-447): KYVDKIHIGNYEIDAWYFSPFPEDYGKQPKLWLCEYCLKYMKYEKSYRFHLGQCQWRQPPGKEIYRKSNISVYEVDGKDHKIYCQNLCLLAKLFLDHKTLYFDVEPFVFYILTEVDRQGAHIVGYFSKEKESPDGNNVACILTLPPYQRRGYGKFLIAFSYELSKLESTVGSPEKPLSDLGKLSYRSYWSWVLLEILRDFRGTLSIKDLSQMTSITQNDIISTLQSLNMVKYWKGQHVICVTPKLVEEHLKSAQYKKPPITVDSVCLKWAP

MOF-KAT8 [7] = target: T4, MOF-KAT8; assay: Revised Acetyltransferase Biochemical Assay, KAT8
HBO-KAT7 [8] = target: T3, HBO-KAT7; assay: Revised Acetyltransferase Biochemical Assay, KAT7; details: Table 9 (HBO-KAT7), 1 μM Acetyl coenzyme A
[9] = system: histone H2A.Z Lysine 7 acetylation (TIP60 mediated) in U2OS cells; assay: H2A.Z Lysine 7 Acetylation Biomarker Assay (384-well, U2OS); assay type: cell-based; details: Homo sapiens, serum free medium, 24 hours incubation
Experimental: Compounds may be tested for their ability to inhibit the histone H2A.Z Lysine 7 acetylation marker (which is TIP60 mediated) in the following assay:
The cell line U2OS was seeded at a density of 3,000 cells per well in 384-well optical quality tissue culture plates in RPMI medium supplemented with 10% foetal bovine serum and 10 mM Hepes. The cells were allowed to adhere for 24 hours under standard culture conditions (37 degree Celsius, 5% CO2). At the end of this period the cells were washed with serum free medium. […] After incubation for 24 hours, the cells were fixed with 4% formaldehyde in PBS for 15 minutes at room temperature, washed with phosphate buffer saline and blocked with blocking buffer containing 0.2% TritonX100 and 2% BSA. Anti-H2A.ZK7ac specific antibody (Abcam) in blocking buffer was added and incubated overnight at 4 degree Celsius. After washing, a secondary antibody labelled with AlexaFluor 488 dye (ThermoFisher) and Hoechst 33342 (1 μg/mL, Life Technologies) were added for 2 hours incubation at room temperature. Plates were washed and read on a PerkinElmer Opera HCS high content imaging platform. Using a Columbus image analysis pipeline, individual nuclei were located by Hoechst 33342 stain and the acetylation level was calculated from the AlexaFluor 488-related intensity in the same area. The resulting mean intensity per cell was converted to percent inhibition relative to controls on the same plate and the data fitted against a four-parameter logistic model to determine the 50% inhibitory concentration (IC50).

T1 sequence (Q92993 2-461 isoform Q92993-2): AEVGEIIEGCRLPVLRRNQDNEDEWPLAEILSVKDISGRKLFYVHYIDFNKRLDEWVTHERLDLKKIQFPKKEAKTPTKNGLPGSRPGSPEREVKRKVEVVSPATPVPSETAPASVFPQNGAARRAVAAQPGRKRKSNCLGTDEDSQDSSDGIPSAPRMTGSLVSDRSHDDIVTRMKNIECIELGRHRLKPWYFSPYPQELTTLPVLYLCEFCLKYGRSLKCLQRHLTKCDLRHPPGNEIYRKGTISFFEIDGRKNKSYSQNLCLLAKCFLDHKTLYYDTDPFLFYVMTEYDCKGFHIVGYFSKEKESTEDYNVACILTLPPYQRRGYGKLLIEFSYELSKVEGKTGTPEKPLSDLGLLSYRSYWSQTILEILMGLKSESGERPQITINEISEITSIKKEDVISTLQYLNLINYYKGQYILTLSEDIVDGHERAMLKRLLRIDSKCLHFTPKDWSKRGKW

| SMILES | IC50 (TIP60-KAT5 [1]) | IC50 (MOZ-KAT6A [2]) | IC50 (MOZ-KAT6A [3]) | IC50 (TIP60-KAT5 [4]) | IC50 (HBO-KAT7 [5]) | IC50 (MOF-KAT8 [6]) | IC50 (MOF-KAT8 [7]) | IC50 (HBO-KAT7 [8]) | IC50 [9] |
| --- | --- | --- | --- | --- | --- | --- | --- | --- | --- |
| O=C(NCC(c1ccccc1)c1ncco1)C1=Nc2ccc(OC(F)(F)F)cc2S(=O)(=O)N1 (stereo not drawn) [Example 5, N-(2-(Oxazol-2-yl)-2-phenylethyl)-7-(trifluoromethoxy)-2H-benzo[e][1,2,4]thiadiazine-3-carboxamide 1,1-dioxide] | 0.493 µM | 0.667 µM | 0.069 µM | 1.17 µM | 2.04 µM | 27.7 µM | – | – | – |
| O=C(NCCc1ccccc1-c1ncco1)C1=Nc2ccccc2S(=O)(=O)N1 [Example 7, N-(2-(Oxazol-2-yl)phenethyl)-2H-benzo[e][1,2,4]thiadiazine-3-carboxamide1,1-dioxide] | 5.92 µM | 2.8 µM | 0.316 µM | 11.7 µM | 11.9 µM | > 125 µM | 81.6 µM | 1.18 µM | – |
| O=C(NCC(c1ccccc1)c1ncco1)C1=Nc2ccc(C(=O)O)cc2S(=O)(=O)N1 (stereo not drawn) [Example 24, 3-((2-(Oxazol-2-yl)-2-phenylethyl)carbamoyl)-2H-benzo[e][1,2,4]thiadiazine-7-carboxylic Acid 1,1-dioxide] | 5.4 µM | 0.127 µM | 0.11 µM | 7.16 µM | 0.141 µM | 69.6 µM | – | 0.583 µM | – |
| CN(C)C(=O)c1ccc2c(c1)S(=O)(=O)NC(C(=O)NCC(c1ccccc1)c1ncco1)=N2 (stereo not drawn) [Example 33, N^7,N^7-Dimethyl-N^3-(2-(oxazol-2-yl)-2-phenylethyl)-2H-benzo[e][1,2,4]thiadiazine-3,7-dicarboxamide 1,1-dioxide] | 3.78 µM | 0.126 µM | 0.047 µM | 6.95 µM | 6.78 µM | 89.6 µM | > 125 µM | 0.551 µM | – |
| CC(=O)c1ccc2c(c1)S(=O)(=O)NC(C(=O)NCC(c1ccccc1)c1ncco1)=N2 (stereo not drawn) [Example 43, 7-acetyl-N-(2-(oxazol-2-yl)-2-phenylethyl)-2H-benzo[e][1,2,4]thiadiazine-3-carboxamide 1,1-dioxide] | 0.266 µM | 0.243 µM | 0.014 µM | 2.39 µM | 1.99 µM | – | 71.6 µM | 0.086 µM | – |
| O=C(NCC(c1ccccc1)c1ccccc1)C1=Nc2ccccc2S(=O)(=O)N1 [Example 68] | 7.21 µM | 3.81 µM | 0.108 µM | 14.5 µM | 0.462 µM | – | 16.5 µM | 0.601 µM | – |
| O=C(NCC(c1ccccc1)n1cccn1)C1=Nc2ccccc2S(=O)(=O)N1 (stereo not drawn) [Example 75] | 14.1 µM | 1.72 µM | 0.308 µM | 56.6 µM | – | – | > 125 µM | 1.15 µM | – |
| O=C(NCCc1ccccc1)C1=Nc2ccc(Br)cc2S(=O)(=O)N1 [Example 78] | 4.54 µM | 3.74 µM | 0.203 µM | 16.7 µM | 4.56 µM | – | > 125 µM | 3.53 µM | – |
| O=C(NCC(O)c1ccccc1)C1=Nc2ccc(Br)cc2S(=O)(=O)N1 (stereo not drawn) [Example 82] | – | 9.19 µM | – | 7.82 µM | – | > 125 µM | – | – | – |
| COc1ccccc1CCNC(=O)C1=Nc2ccc(I)cc2S(=O)(=O)N1 [Example 86] | 0.521 µM | 2.7 µM | 0.096 µM | 1.17 µM | 1.33 µM | 39.4 µM | 42.4 µM | 0.787 µM | – |
| O=C(NCC(O)c1ccccc1)C1=Nc2ccc(I)cc2S(=O)(=O)N1 (stereo not drawn) [Example 87] | – | 8.93 µM | – | 4.47 µM | 12 µM | 114 µM | – | – | – |
| COC(CNC(=O)C1=Nc2ccc(I)cc2S(=O)(=O)N1)c1ccccc1 (stereo not drawn) [Example 88] | – | – | – | 1.19 µM | 0.659 µM | 47 µM | – | – | – |
| O=C(NCC(c1ccccc1)c1ncco1)C1=Nc2cccnc2S(=O)(=O)N1 (stereo not drawn) [Example 96] | 13.3 µM | 1.17 µM | 0.149 µM | 94.7 µM | 3.17 µM | – | > 125 µM | 1.11 µM | – |
| O=C(NCCc1ccccc1OC(F)(F)F)C1=Nc2ccc(Br)cc2S(=O)(=O)N1 [Example 114] | – | 0.861 µM | – | 0.954 µM | 0.529 µM | > 125 µM | – | – | – |
| O=C(NCCc1ccccc1O)C1=Nc2ccc(Br)cc2S(=O)(=O)N1 [Example 116] | – | 2.26 µM | – | 4.44 µM | – | 56.7 µM | – | – | – |
| O=C(NCC(c1ccccc1)c1ncco1)C1=Nc2ccc(-c3nccs3)cc2S(=O)(=O)N1 (stereo not drawn) [Example 134] | 0.648 µM | 0.149 µM | 0.024 µM | 2.17 µM | 3.32 µM | – | 15.7 µM | 0.72 µM | – |
| O=C(NCC(c1ccc(F)cc1)c1ncco1)C1=Nc2ccc(Cl)cc2S(=O)(=O)N1 (stereo not drawn) [Example 165] | 6.02 µM | – | 0.031 µM | – | – | 43.1 µM | > 125 µM | 1.77 µM | – |
| Cc1ccc(C(CNC(=O)C2=Nc3ccc(Cl)cc3S(=O)(=O)N2)c2ncco2)cc1 (stereo not drawn) [Example 170] | 13.3 µM | – | 0.143 µM | – | – | 3.75 µM | > 125 µM | 1.63 µM | – |
| O=C(NCC(c1ccccc1)c1ccccn1)C1=Nc2ccc(Br)cc2S(=O)(=O)N1 (stereo not drawn) [Example 173] | 0.651 µM | – | 0.011 µM | – | 0.051 µM | 39.1 µM | 30.4 µM | 0.161 µM | – |
| O=C(NCC(c1ncco1)c1ccccc1I)C1=Nc2ccccc2S(=O)(=O)N1 (stereo not drawn) [Example 174, N-(2-(2-iodophenyl)-2-(oxazol-2-yl)ethyl)-2H-benzo[e][1,2,4]thiadiazine-3-carboxamide 1,1-dioxide] | 15.3 µM | – | 0.573 µM | – | 7.49 µM | > 125 µM | – | 4.15 µM | – |
| CS(=O)(=O)c1ccc2c(c1)S(=O)(=O)NC(C(=O)NCC(c1ccccc1)c1ncco1)=N2 (stereo not drawn) [Example 191] | 0.919 µM | – | 0.043 µM | – | – | – | – | 0.243 µM | > 40 µM |
| N#Cc1ccccc1C(CNC(=O)C1=Nc2ccccc2S(=O)(=O)N1)c1ncco1 (stereo not drawn) [Example 218, N-(2-(2-Cyanophenyl)-2-(oxazol-2-yl)ethyl)-2H-benzo[e][1,2,4]thiadiazine-3-carboxamide 1,1-dioxide] | 16.8 µM | – | 0.153 µM | – | – | > 125 µM | > 125 µM | 9.41 µM | – |
| COC(=O)c1ccccc1C(CNC(=O)C1=Nc2ccccc2S(=O)(=O)N1)c1ncco1 (stereo not drawn) [Example 219, Methyl 2-(2-(1,1-dioxido-2H-benzo[e][1,2,4]thiadiazine-3-carboxamido)-1-(oxazol-2-yl)ethyl)benzoate] | > 125 µM | – | 3.59 µM | – | – | > 125 µM | > 125 µM | 105 µM | – |
| O=C(NCCc1ccccc1-n1ccnn1)C1=Nc2ccc(I)cc2S(=O)(=O)N1 [Example 241, N-(2-(1H-1,2,3-triazol-1-yl)phenethyl)-7-iodo-2H-benzo[e][1,2,4]thiadiazine-3-carboxamide 1,1-dioxide] | 1.01 µM | – | 0.082 µM | – | – | – | – | 0.948 µM | > 40 µM |
| COC(=O)NC(CNC(=O)C1=Nc2ccccc2S(=O)(=O)N1)C1CCCCC1 (stereo not drawn) [Example 243, methyl (1-cyclohexyl-2-(1,1-dioxido-2H-benzo[e][1,2,4]thiadiazine-3-carboxamido)ethyl)carbamate] | 39.9 µM | – | 12.3 µM | – | – | 82.5 µM | – | 77.3 µM | – |

Source: patent US20210380548A1, “Fused [1,2,4]Thiadiazine Derivatives Which Act as KAT Inhibitors of the MYST Family” (CTxT Pty Limited, priority 2017, published 2021)
